One may read the pIC50 as the IC50 on a negative log10 scale, so that one unit is a factor of ten.

Drawing on patent US11542273B2, “Amide compound having bet proteolysis-inducing action and medicinal application thereof” (MITSUBISHI TANABE PHARMA CORPORATION, priority 2018, dated 2023), this text covers IC50 for three compounds.

pIC50: −log10 of the molar value.

Holding throughout (test): Cytotoxic action on cancer cells (WST-8, 96 hr)
Type in all cases: cell-based

For assay [1], the system named is human Burkitt lymphoma Raji cell. The note with it: 96 hr culture. The procedure, abridged:
(§1)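 10% FBS/RPMI1640; overnight plating, 37° C/5% CO2; compound from DMSO diluted in medium; WST-8 viable count vs no-compound control; IC50 by two-point linear interpolation around 50% survival.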

In assay [2] the test system is human T-cell leukemia Jurkat cells. Conditions: 96 hr culture. The procedure, abridged:
as §1

Assay [3] has as its system human acute myeloid leukemia MV-4-11 cell. Conditions: MV4-11, MV-4-11 cells, 96 hr culture. The procedure, abridged: as §1
Assay [4] deals with human bladder cancer 5637 cell. The note with it: 5637 cells, 96 hr culture. The procedure, abridged: as §1
Assay [5] deals with human breast cancer ZR-75-1 cell. Conditions: ZR-75-1 cells, 96 hr culture. The method, boiled down: as §1
The test system of assay [6] is human castration-resistant prostate cancer PC-3 cell. The note with it: PC-3 cells (printed P0-3 in table), 96 hr culture. The procedure, abridged:
as §1

For assay [7], the system named is human chronic myeloid leukemia K562 cell. The note with it: 96 hr culture. The procedure, abridged:
as §1

The subject of assay [8] is human colorectal cancer HCT116 cell. The note with it: HCT-116, 96 hr culture. The method, boiled down:
as §1

Assay [9] deals with human diffuse large B-cell lymphoma SU-DHL-6 cell. Conditions: SU-DHL-6 cells, 96 hr culture. The method, boiled down:
as §1

Assay [10] concerns human gastric cancer SNU-16 cell. The note with it: SNU-16 cells, 96 hr culture. The method, boiled down:
as §1

The subject of assay [11] is human glioma U-87 MG cell. Conditions: U-87 MG cells, 96 hr culture. The procedure, abridged:
as §1

Assay [12] deals with human large cell lung cancer NCI-H460 cell. The note with it: 96 hr culture. The method, boiled down: as §1
In assay [13] the test system is human liver cancer Hep G2 cell. The note with it: HepG2, 96 hr culture. The procedure, abridged: as §1
Assay [14] relates to human multiple myeloma MM.1S cell. Conditions: MM1.S, MM.1S cells, 96 hr culture. The method, boiled down: as §1
In assay [15] the test system is human non-small cell lung cancer NCI-H1975 cell. Conditions: 96 hr culture. The method, boiled down: as §1
Assay [16] relates to human ovarian cancer A2780 cell. Conditions: 96 hr culture. The method, boiled down: as §1
Assay [17] deals with human pancreatic cancer AsPC-1 cell. The note with it: ASPC1, AsPC-1 cells, 96 hr culture. The procedure, abridged:
as §1

Assay [18] deals with human prostate cancer LNCaP cells. Conditions: Homo sapiens, LNCaP, 96 h, read-out: LNCaP cytotoxic activity: IC50. The procedure, abridged: as §1
Assay [19] concerns human small cell lung cancer NCI-H82 cell. The note with it: 96 hr culture. The method, boiled down: as §1
Assay [20] relates to human triple negative breast cancer MDA-MB-231 cell. The note with it: MDA-MB-231 cells, 96 hr culture. The procedure, abridged:
as §1

In assay [21] the test system is human uterine sarcoma MES-SA cell. Conditions: 96 hr culture. The procedure, abridged: as §1

Turning to `COC(=O)C[C@@H]1N=C(c2ccc(-c3ccc(OCC(=O)N[C@H](C(=O)N4C[C@H](O)C[C@H]4C(=O)N[C@@H](C)c4ccc(-c5scnc5C)cc4)C(C)(C)C)c(C#N)c3)cc2)c2c(sc(C)c2C)-n2c(C)nnc21` [Example 9, methyl [(6S)-4-{3′-cyano-4′-[2-({(2S)-1-[(2S,4R)-4-hydroxy-2-({(1S)-1-[4-(4-methyl-1,3-thiazol-5-yl)phenyl]ethyl}carbamoyl)pyrrolidin-1-yl]-3,3-dimethyl-1-oxobutan-2-yl}amino)-2-oxoethoxy][1,1′-biphenyl]-4-yl}-2,3,9-trimethyl-6H-thieno[3,2-f][1,2,4]triazolo[4,3-a][1,4]diazepin-6-yl]acetate], the pIC50 in [1] was 8.72; in assay [2] it was 8.92; in assay [3], 10.82; in [4] it was 9.35; in assay [5], 9.02; in [6] it was 9.00. Further, the negative-log IC50 (pIC50) in [7] was 8.66; in assay [8], 8.33; in assay [9], 9.24; in [10], 8.52; in assay [11], 8.04; in assay [12], 7.62. Moreover, the pIC50 in [13] was 7.48; in assay [14], 9.85; in [15], 8.43; in assay [16], 9.80; in assay [17] it was 7.52; in assay [18], 9.80. For the same compound, the negative-log IC50 (pIC50) in [19] was 7.82; in [20] it was 8.24; in assay [21], 8.59.

`COC(=O)C[C@@H]1N=C(c2ccc(N3CC[C@@H](Oc4ccc5oc(C(=O)N[C@H](C(=O)N6C[C@H](O)C[C@H]6C(=O)N[C@@H](C)c6ccc(-c7scnc7C)cc6)C(C)(C)C)cc5c4)C3)cc2)c2c(sc(C)c2C)-n2c(C)nnc21` [Example 142, methyl [(6S)-4-{4-[(3R)-3-{[2-({(2S)-1-[(2S,4R)-4-hydroxy-2-({(1S)-1-[4-(4-methyl-1,3-thiazol-5-yl)phenyl]ethyl}carbamoyl)pyrrolidin-1-yl]-3,3-dimethyl-1-oxobutan-2-yl}carbamoyl)-1-benzofuran-5-yl]oxy}pyrrolidin-1-yl]phenyl}-2,3,9-trimethyl-6H-thieno[3,2-f][1,2,4]triazolo[4,3-a][1,4]diazepin-6-yl]acetate]: the pIC50 in assay [1] was 9.15; in [2], 9.44; in assay [3], 10.39; in assay [4], 9.47; in assay [5], 9.31; in assay [6], 9.47. Moreover, the negative-log IC50 (pIC50) in [7] was 8.68; in [8], 8.41; in [9] it was 9.03; in [10], 9.26; in [11], 8.40; in [12] it was 7.96. Further, the pIC50 in assay [13] was 8.13; in [14], 9.64; in assay [15], 8.74; in [16], 9.57; in assay [17] it was 8.24; in assay [18] it was 9.52. In addition, the results for the negative logarithm of the IC50 (pIC50) in assay [19], in [20] and in assay [21] were 8.23, 9.01 and 8.80, respectively.

For `COC(=O)C[C@@H]1N=C(c2ccc(-c3ccc(C(=O)N[C@H](C(=O)N4C[C@H](O)C[C@H]4C(=O)N[C@@H](C)c4ccc(-c5scnc5C)cc4)C(C)(C)C)c(Cl)c3)cc2)c2c(sc(C)c2C)-n2c(C)nnc21` [Example 157, methyl {(6S)-4-[3′-chloro-4′-({(2S)-1-[(2S,4R)-4-hydroxy-2-({(1S)-1-[4-(4-methyl-1,3-thiazol-5-yl)phenyl]ethyl}carbamoyl)pyrrolidin-1-yl]-3,3-dimethyl-1-oxobutan-2-yl}carbamoyl)[1,1′-biphenyl]-4-yl]-2,3,9-trimethyl-6H-thieno[3,2-f][1,2,4]triazolo[4,3-a][1,4]diazepin-6-yl}acetate], the pIC50 in assay [1] was 9.23; in [2] it was 9.34; in assay [3], 10.54; in [4], 9.48; in [5], 8.70; in assay [6], 9.39. Also, the pIC50 in assay [7] was 8.92; in assay [8], 8.35; in assay [9] it was 9.41; in [10], 8.92; in [11], 7.74; in [12] it was 7.64. For the same compound, the pIC50 in assay [13] is 7.92; in assay [14] it was 10.09; in assay [15], 8.66; in assay [16], 9.82; in assay [17] it was 7.64; in assay [18], 9.40. Moreover, the pIC50 was 8.35 in assay [19], 8.74 in assay [20] and 8.77 in [21].
